Where a name gives a salt, the structure may show the parent alone.
Test system: dopamine (DA) receptors in the limbic system
Assay: Locomotor activity (spontaneous or aroused by (-)APO / (-)NPA), electronic activity monitor
Assay type: in vivo, rat
Conditions: for Locomotion: Table 5; for effect on locomotor-arousal activity (in words): with or without (-) isomer, Hydrochloride
Protocol: Activity: Overall motor activity was measured by use of the self-recording Stoelting electronic activity monitor method described previously by Stewart, Campbell, Sperk, and Baldessarini^9. Total activity is obtained by setting monitor sensitivity so as to detect both locomotion and small movements (such as grooming, sniffing, and chewing) as would be prominent in stereotyped responses that tend to diminish locomotion and increase sniffing, licking, and chewing movements. Locomotor activity is detected selectively by setting monitor sensitivity to detect large, locomotor movements, and to minimize smaller movements already described.
Rats (mean N=6 per condition) were tested for locomotor activity for 60 min following a single dose of (-)APO (0.3 mg/kg, SC), or its vehicle ("placebo" condition). The S(+) isomers were administered in a range of doses from 0 or 0.1 to 30 mg/kg, SC immediately following injection of (-)APO or its vehicle. Data are presented in FIG. 2 as mean EAM activity counts per hour SEM. In that figure, the dashed line labeled "control" represents the mean activity of rats given vehicle only and no aporphine (SD values are indicated by parallel light lines above and below the control mean).
Test agents (11substituted-N--propylnoraporphine isomers were given at a
dose of 3 mg/kg, ip (in 2 ml/kg) just prior to (-)apomorphine (APO, at 0.
mg/kg, ip, in 1 ml/kg) to rats (N = 6) tested in an electronic activity

CCCN1CCc2cccc3c2[C@@H]1Cc1ccc(O)c(O)c1-3 [(+)NPA, (S)-N-n-Propylnorapomorphine Hydrochloride]
Locomotion ((+)NPA 3 mg/kg s.c. after (-)NPA 0.3 mg/kg): 14.8 ± 2.6 percent change | Locomotion ((+)NPA 3 mg/kg s.c. after (-)NPA 3.0 mg/kg): 8.5 ± 0.6 percent change | Locomotion ((+)NPA 3 mg/kg s.c., (-)NPA 0): 0 percent change | ID50 to reduce the locomotor activating actions of (-)APO (s.c., (-)APO 0.3 mg/kg): 0.2 mg/kg | ID50, spontaneous locomotor arousal (spontaneous activity): 3 mg/kg | effect on locomotor-arousal activity (in words): dose-dependent inhibition of such activity of the R(-) aporphine | effect on locomotor-arousal activity (in words) (listed as (+)-N-n-propylnorapomorphine): marked motor-inhibitory effect

— US4687773A, “(+)-N-N-propylnorapomorphine and selective limbic activity” (priority 1985, dated 1987)
